Assay results taken from patent US10479786B2, “Protein kinase inhibitors” (Princeton Drug Discovery Inc, priority 2016, dated 2019).

Columns and labels:
ABL = biological target: T1, ABL (Homo sapiens, UniProt P00519); experiment: Off-chip Mobility Shift Assay, kinase inhibition; format: biochemical; conditions: recombinant ABL; for inhibition at 0.001 µM: at 1 nM; for inhibition at 0.01 µM: at 10 nM
T1 construct: purchased Carna Biosciences, Inc

ABL(E255K) = biological target: T2, ABL(E255K) (Homo sapiens, UniProt P00519, E255K); experiment: Off-chip Mobility Shift Assay, kinase inhibition; format: biochemical; conditions: recombinant ABL(E255K); for inhibition at 0.001 µM: at 1 nM; for inhibition at 0.01 µM: at 10 nM
T2 construct: purchased Carna Biosciences, Inc

ACK = biological target: T3, ACK (Homo sapiens, UniProt Q07912); experiment: Off-chip Mobility Shift Assay, kinase inhibition; format: biochemical; conditions: recombinant ACK; for inhibition at 0.01 µM: at 10 nM
T3 construct: purchased Carna Biosciences, Inc

ARG = biological target: T4, ARG (Homo sapiens, UniProt P42684); experiment: Off-chip Mobility Shift Assay, kinase inhibition; format: biochemical; conditions: recombinant ARG; for inhibition at 0.01 µM: at 10 nM, read-out: inhibition
T4 construct: purchased Carna Biosciences, Inc

BLK = biological target: T5, BLK (Homo sapiens, UniProt P51451); experiment: Off-chip Mobility Shift Assay, kinase inhibition; format: biochemical; conditions: recombinant BLK; for inhibition at 0.001 µM: at 1 nM; for inhibition at 0.01 µM: at 10 nM
T5 construct: purchased Carna Biosciences, Inc

DDR2 = biological target: T6, DDR2 (Homo sapiens, UniProt Q16832); experiment: Off-chip Mobility Shift Assay, kinase inhibition; format: biochemical; conditions: recombinant DDR2; for inhibition at 0.01 µM: at 10 nM, read-out: inhibition
T6 construct: purchased Carna Biosciences, Inc
T6 sequence (Q16832 22-855): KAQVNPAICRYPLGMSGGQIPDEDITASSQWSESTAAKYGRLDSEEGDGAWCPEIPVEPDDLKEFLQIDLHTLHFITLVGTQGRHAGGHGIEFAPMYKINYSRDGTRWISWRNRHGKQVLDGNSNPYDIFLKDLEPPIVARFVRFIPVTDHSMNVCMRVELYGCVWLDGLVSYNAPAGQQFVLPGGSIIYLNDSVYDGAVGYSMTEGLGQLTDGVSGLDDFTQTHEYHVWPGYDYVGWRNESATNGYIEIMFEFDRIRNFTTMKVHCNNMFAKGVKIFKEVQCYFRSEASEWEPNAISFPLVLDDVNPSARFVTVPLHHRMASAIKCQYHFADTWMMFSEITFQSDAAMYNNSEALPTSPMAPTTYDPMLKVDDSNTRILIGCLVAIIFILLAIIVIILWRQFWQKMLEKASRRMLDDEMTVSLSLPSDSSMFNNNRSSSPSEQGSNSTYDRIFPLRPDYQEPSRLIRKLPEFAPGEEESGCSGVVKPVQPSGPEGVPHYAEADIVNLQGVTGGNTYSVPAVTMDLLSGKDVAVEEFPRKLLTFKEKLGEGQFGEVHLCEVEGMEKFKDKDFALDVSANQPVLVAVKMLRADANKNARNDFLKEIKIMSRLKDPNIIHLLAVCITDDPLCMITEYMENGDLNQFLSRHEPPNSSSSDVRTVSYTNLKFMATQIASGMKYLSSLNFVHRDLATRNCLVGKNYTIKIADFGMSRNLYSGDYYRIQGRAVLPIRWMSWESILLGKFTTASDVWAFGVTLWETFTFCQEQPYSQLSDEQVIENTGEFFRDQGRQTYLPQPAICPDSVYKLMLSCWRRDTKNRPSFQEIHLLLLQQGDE

FGR = biological target: T7, FGR (Homo sapiens, UniProt P09769); experiment: Off-chip Mobility Shift Assay, kinase inhibition; format: biochemical; conditions: recombinant FGR; for inhibition at 0.001 µM: at 1 nM; for inhibition at 0.01 µM: at 10 nM, read-out: inhibition
T7 construct: purchased Carna Biosciences, Inc

FRK = biological target: T8, FRK (Homo sapiens, UniProt P42685); experiment: Off-chip Mobility Shift Assay, kinase inhibition; format: biochemical; conditions: recombinant FRK; for inhibition at 0.001 µM: at 1 nM; for inhibition at 0.01 µM: at 10 nM
T8 construct: purchased Carna Biosciences, Inc

FYN(isoform a) = biological target: T9, FYN(isoform a) (Homo sapiens, UniProt P06241); experiment: Off-chip Mobility Shift Assay, kinase inhibition; format: biochemical; conditions: recombinant FYN(isoform a); for inhibition at 0.001 µM: at 1 nM; for inhibition at 0.01 µM: at 10 nM
T9 construct: purchased Carna Biosciences, Inc

HCK = biological target: T10, HCK (Homo sapiens, UniProt P08631); experiment: Off-chip Mobility Shift Assay, kinase inhibition; format: biochemical; conditions: recombinant HCK; for inhibition at 0.001 µM: at 1 nM; for inhibition at 0.01 µM: at 10 nM, read-out: inhibition
T10 construct: purchased Carna Biosciences, Inc

LYNa = biological target: T11, LYNa (Homo sapiens, UniProt P07948); experiment: Off-chip Mobility Shift Assay, kinase inhibition; format: biochemical; conditions: recombinant LYNa; for inhibition at 0.001 µM: at 1 nM; for inhibition at 0.01 µM: at 10 nM, read-out: inhibition
T11 construct: purchased Carna Biosciences, Inc

PDGFRα = biological target: T12, PDGFRα (Homo sapiens, UniProt P16234); experiment: Off-chip Mobility Shift Assay, kinase inhibition; format: biochemical; conditions: recombinant PDGFRα; for inhibition at 0.001 µM: at 1 nM; for inhibition at 0.01 µM: at 10 nM, read-out: inhibition
T12 construct: purchased Carna Biosciences, Inc

PDGFRβ = biological target: T13, PDGFRβ (Homo sapiens, UniProt P09619); experiment: Off-chip Mobility Shift Assay, kinase inhibition; format: biochemical; conditions: recombinant PDGFRβ; for inhibition at 0.001 µM: at 1 nM; for inhibition at 0.01 µM: at 10 nM, read-out: inhibition
T13 construct: purchased Carna Biosciences, Inc

SRC = biological target: T14, SRC (Homo sapiens, UniProt P12931); experiment: Off-chip Mobility Shift Assay, kinase inhibition; format: biochemical; conditions: recombinant SRC; for inhibition at 0.001 µM: at 1 nM; for inhibition at 0.01 µM: at 10 nM
T14 construct: purchased Carna Biosciences, Inc

YES = biological target: T15, YES (Homo sapiens, UniProt P07947); experiment: Off-chip Mobility Shift Assay, kinase inhibition; format: biochemical; conditions: recombinant YES; for inhibition at 0.001 µM: at 1 nM; for inhibition at 0.01 µM: at 10 nM
T15 construct: purchased Carna Biosciences, Inc

PIK3CA/PIK3R1 = biological target: T16, PIK3CA/PIK3R1 (Homo sapiens, UniProt P42336); experiment: Off-chip Mobility Shift Assay, kinase inhibition; format: biochemical; conditions: recombinant PIK3CA/PIK3R1; for inhibition at 0.01 µM: at 10 nM
T16 construct: purchased Carna Biosciences, Inc

[1] = system: battery of selected protein kinases; experiment: In vitro screen of a battery of selected protein kinases (summary statement); format: biochemical; conditions: BTK, BMX, ABL, ABL(E255K), SRC, ACK, ARG, BLK, DDR2, EPHA, FGR, FMS, FRK, FYN, HCK, LCK, LYN, PDGFRα, PDGFRβ, YES, PIK3CA/PIK3R1, among others
SU-DHL-4 = experiment: Cell inhibition assay (PrestoBlue, 48 h); format: cell-based; conditions: Homo sapiens, SU-DHL-4, 48 h, SU-DHL-4 diffuse large B-cell lymphoma cells, read-out: IC50, inhibition of growth
Mino = experiment: Cell inhibition assay (PrestoBlue, 48 h); format: cell-based; conditions: Homo sapiens, Mino cells, read-out: IC50, inhibition of growth

T2 sequence (P00519 whole entry E255K): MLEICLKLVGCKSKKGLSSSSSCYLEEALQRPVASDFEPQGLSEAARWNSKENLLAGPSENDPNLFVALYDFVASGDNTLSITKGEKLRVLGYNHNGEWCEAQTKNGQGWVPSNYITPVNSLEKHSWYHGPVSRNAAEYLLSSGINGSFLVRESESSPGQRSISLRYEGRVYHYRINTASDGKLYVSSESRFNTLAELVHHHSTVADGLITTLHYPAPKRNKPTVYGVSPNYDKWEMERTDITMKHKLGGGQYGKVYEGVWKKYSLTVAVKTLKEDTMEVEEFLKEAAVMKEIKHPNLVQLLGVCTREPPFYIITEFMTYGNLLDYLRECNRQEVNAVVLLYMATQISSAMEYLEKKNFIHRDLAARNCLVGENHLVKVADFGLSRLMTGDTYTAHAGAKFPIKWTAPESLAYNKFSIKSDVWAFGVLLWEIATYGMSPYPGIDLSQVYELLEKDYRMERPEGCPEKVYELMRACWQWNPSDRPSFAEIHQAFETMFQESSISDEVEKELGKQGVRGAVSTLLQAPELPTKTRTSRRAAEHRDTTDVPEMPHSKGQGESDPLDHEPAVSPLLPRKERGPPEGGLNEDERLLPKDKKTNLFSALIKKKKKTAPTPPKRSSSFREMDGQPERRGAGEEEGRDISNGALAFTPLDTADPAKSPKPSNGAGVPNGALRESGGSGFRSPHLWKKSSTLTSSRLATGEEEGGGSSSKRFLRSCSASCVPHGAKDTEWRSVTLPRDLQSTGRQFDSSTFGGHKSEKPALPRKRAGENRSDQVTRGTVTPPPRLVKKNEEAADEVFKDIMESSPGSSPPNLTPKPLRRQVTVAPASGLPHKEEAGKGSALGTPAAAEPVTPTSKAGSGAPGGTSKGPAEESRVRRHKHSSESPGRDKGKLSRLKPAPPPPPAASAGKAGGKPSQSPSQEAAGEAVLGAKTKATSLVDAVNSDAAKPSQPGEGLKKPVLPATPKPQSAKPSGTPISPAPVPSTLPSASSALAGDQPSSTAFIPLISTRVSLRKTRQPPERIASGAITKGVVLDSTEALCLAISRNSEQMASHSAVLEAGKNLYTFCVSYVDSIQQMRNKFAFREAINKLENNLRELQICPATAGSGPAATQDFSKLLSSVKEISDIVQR
T12 sequence (P16234 24-1089): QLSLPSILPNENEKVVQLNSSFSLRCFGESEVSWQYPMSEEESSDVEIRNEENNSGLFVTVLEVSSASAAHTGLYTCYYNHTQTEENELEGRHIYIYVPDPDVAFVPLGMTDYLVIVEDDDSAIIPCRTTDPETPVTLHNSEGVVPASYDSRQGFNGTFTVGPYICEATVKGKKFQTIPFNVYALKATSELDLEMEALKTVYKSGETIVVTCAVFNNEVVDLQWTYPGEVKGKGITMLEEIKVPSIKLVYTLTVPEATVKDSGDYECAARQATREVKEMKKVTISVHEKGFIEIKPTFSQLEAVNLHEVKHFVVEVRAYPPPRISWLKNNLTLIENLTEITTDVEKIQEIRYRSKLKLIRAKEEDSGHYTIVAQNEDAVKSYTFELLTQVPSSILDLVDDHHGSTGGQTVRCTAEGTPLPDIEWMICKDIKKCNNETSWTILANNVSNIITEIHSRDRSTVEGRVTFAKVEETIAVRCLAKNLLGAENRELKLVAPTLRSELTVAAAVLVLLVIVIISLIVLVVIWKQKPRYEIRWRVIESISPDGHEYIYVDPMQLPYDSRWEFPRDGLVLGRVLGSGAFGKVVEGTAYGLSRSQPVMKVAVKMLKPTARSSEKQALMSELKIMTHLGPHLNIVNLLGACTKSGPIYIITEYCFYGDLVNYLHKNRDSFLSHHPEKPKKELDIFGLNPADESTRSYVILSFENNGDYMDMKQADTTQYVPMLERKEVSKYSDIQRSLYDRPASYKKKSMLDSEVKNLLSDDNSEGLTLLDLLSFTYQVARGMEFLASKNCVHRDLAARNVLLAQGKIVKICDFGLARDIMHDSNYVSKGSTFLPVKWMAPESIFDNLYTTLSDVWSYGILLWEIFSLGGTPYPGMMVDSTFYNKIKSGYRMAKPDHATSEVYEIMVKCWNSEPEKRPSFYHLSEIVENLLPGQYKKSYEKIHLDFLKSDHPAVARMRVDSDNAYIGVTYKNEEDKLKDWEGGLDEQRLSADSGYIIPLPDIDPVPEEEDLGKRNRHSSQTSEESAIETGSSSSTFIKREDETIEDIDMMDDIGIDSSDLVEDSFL
T14 sequence (P12931 whole entry): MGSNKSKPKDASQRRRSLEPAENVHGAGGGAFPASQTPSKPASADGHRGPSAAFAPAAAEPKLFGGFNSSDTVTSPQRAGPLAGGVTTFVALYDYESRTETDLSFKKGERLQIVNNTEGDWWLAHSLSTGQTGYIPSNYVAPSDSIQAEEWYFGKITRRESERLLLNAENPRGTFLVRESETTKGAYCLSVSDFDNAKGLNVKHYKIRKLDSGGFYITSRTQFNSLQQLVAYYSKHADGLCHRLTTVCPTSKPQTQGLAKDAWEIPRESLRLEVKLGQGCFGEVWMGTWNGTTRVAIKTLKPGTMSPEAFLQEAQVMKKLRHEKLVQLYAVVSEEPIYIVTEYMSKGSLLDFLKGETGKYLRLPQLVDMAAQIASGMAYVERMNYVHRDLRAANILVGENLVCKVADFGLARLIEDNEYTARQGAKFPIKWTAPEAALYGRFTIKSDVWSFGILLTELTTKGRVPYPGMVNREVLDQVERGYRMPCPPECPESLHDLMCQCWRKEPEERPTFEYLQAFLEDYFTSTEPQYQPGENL
T15 sequence (P07947 whole entry): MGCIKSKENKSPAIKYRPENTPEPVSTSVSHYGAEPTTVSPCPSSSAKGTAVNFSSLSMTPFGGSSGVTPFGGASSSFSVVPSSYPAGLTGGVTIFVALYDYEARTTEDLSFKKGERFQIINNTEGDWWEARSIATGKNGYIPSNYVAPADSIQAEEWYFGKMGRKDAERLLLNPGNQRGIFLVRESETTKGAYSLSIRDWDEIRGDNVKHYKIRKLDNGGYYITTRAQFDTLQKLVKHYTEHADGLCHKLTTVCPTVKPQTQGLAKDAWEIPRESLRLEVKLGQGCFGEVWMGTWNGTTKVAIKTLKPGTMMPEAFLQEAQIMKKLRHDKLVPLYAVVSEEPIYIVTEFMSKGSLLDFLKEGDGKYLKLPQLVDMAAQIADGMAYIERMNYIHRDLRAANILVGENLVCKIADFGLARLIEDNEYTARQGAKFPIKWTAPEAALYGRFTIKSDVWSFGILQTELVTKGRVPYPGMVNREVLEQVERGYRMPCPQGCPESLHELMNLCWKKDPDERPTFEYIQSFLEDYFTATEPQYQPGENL
T5 sequence (P51451 whole entry): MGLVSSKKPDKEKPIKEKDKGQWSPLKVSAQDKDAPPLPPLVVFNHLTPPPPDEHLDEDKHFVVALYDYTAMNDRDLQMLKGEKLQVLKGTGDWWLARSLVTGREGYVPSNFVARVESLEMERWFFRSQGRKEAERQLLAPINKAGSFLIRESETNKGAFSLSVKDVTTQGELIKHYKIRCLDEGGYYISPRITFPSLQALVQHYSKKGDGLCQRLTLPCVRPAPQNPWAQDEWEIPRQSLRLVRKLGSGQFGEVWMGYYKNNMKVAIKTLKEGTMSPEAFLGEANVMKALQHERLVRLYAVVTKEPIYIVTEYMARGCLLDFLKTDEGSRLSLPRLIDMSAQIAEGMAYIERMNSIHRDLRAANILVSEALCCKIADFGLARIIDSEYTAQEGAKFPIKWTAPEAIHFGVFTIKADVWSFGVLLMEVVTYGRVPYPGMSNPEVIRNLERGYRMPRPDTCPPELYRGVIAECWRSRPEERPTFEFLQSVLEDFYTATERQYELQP
T13 sequence (P09619 33-1106): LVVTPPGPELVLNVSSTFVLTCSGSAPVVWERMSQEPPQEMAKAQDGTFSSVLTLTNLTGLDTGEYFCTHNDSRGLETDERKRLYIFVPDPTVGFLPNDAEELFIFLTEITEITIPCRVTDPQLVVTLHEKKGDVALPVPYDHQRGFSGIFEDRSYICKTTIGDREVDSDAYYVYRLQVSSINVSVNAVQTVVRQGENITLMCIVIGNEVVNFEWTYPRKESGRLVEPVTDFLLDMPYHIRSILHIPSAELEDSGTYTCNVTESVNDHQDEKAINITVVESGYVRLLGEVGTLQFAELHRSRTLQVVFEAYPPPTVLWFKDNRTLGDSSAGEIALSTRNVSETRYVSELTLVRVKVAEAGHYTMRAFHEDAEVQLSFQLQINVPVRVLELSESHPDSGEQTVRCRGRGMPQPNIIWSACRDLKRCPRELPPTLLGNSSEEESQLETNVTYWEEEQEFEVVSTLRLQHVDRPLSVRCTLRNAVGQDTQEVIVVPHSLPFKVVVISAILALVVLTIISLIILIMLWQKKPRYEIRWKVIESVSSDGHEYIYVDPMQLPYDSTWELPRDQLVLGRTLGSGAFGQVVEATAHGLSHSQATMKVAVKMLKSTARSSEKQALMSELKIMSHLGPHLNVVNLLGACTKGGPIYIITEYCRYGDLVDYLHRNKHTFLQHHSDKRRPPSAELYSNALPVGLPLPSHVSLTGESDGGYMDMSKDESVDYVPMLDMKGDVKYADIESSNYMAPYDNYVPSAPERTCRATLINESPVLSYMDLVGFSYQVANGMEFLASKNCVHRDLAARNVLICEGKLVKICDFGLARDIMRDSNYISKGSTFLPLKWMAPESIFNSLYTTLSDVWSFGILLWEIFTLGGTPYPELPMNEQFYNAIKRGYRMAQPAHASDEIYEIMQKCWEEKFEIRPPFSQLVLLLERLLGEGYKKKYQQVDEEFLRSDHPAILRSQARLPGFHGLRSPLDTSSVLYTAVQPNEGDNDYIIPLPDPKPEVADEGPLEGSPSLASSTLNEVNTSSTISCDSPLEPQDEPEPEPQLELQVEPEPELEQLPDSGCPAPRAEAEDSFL
T1 sequence (P00519 whole entry): as the sequence (P00519 whole entry E255K) above, with K255E counted along it

SMILES: [2H]c1cc(C)c(NC(=O)c2cnc(Nc3cc(N4CCCCC4)nc(C)n3)s2)c(Cl)c1 [Compound I, N-(2-chloro-4-deuterio-6-methyl-phenyl)-2-[[2-methyl-6-(1-piperidyl)pyrimidin-4-yl]amino]thiazole-5-carboxamide]
- inhibition at 0.001 µM (ABL): > 50%
- inhibition at 0.01 µM (ABL): > 50%
- inhibition at 0.001 µM (ABL(E255K)): > 50%
- inhibition at 0.01 µM (ABL(E255K)): > 50%
- inhibition at 0.001 µM (ACK; at 1 nM): > 50%
- inhibition at 0.01 µM (ACK): > 50%
- inhibition at 0.001 µM (ARG; at 1 nM): > 50%
- inhibition at 0.01 µM (ARG): > 50%
- inhibition at 0.001 µM (BLK): > 50%
- inhibition at 0.01 µM (BLK): > 50%
- inhibition at 0.001 µM (DDR2; at 1 nM): > 50%
- inhibition at 0.01 µM (DDR2): > 50%
- inhibition at 0.001 µM (FGR): > 50%
- inhibition at 0.01 µM (FGR): > 50%
- inhibition at 0.001 µM (FRK): > 50%
- inhibition at 0.01 µM (FRK): > 50%
- inhibition at 0.001 µM (FYN(isoform a)): > 50%
- inhibition at 0.01 µM (FYN(isoform a)): > 50%
- inhibition at 0.001 µM (HCK): > 50%
- inhibition at 0.01 µM (HCK): > 50%
- inhibition at 0.001 µM (LYNa): > 50%
- inhibition at 0.01 µM (LYNa): > 50%
- inhibition at 0.001 µM (PDGFRα): > 50%
- inhibition at 0.01 µM (PDGFRα): > 50%
- inhibition at 0.001 µM (PDGFRβ): > 50%
- inhibition at 0.01 µM (PDGFRβ): > 50%
- inhibition at 0.001 µM (SRC): > 50%
- inhibition at 0.01 µM (SRC): > 50%
- inhibition at 0.001 µM (YES): > 50%
- inhibition at 0.01 µM (YES): > 50%
- inhibition at 0.01 µM (PIK3CA/PIK3R1): > 50%
- activity to inhibit kinases [1]: potent activity
- IC50 (SU-DHL-4): < 20 nM
- IC50 (Mino): < 50 nM

SMILES: [2H]c1cc(C)c(NC(=O)c2cnc(Nc3cc(N4CCC(O)CC4)nc(C)n3)s2)c(Cl)c1 [Compound II, N-(2-chloro-4-deuterio-6-methyl-phenyl)-2-[[6-(4-hydroxy-1-piperidyl)-2-methyl-pyrimidin-4-yl]amino]thiazole-5-carboxamide]
- inhibition at 0.001 µM (ABL): > 50%
- inhibition at 0.01 µM (ABL): > 50%
- inhibition at 0.001 µM (ABL(E255K)): > 50%
- inhibition at 0.01 µM (ABL(E255K)): > 50%
- inhibition at 0.01 µM (ACK): > 50%
- inhibition at 0.01 µM (ARG): > 50%
- inhibition at 0.001 µM (BLK): > 50%
- inhibition at 0.01 µM (BLK): > 50%
- inhibition at 0.01 µM (DDR2): > 50%
- inhibition at 0.001 µM (FGR): > 50%
- inhibition at 0.01 µM (FGR): > 50%
- inhibition at 0.001 µM (FRK): > 50%
- inhibition at 0.01 µM (FRK): > 50%
- inhibition at 0.001 µM (FYN(isoform a)): > 50%
- inhibition at 0.01 µM (FYN(isoform a)): > 50%
- inhibition at 0.001 µM (HCK): > 50%
- inhibition at 0.01 µM (HCK): > 50%
- inhibition at 0.001 µM (LYNa): > 50%
- inhibition at 0.01 µM (LYNa): > 50%
- inhibition at 0.001 µM (PDGFRα): < 50%
- inhibition at 0.01 µM (PDGFRα): > 50%
- inhibition at 0.1 µM (PDGFRα; at 100 nM): > 50%
- inhibition at 0.001 µM (PDGFRβ): < 50%
- inhibition at 0.01 µM (PDGFRβ): > 50%
- inhibition at 0.1 µM (PDGFRβ; at 100 nM): > 50%
- inhibition at 0.001 µM (SRC): > 50%
- inhibition at 0.01 µM (SRC): > 50%
- inhibition at 0.001 µM (YES): > 50%
- inhibition at 0.01 µM (YES): > 50%
- inhibition at 0.001 µM (PIK3CA/PIK3R1; at 1 nM): < 50%
- inhibition at 0.01 µM (PIK3CA/PIK3R1): > 50%
- inhibition at 0.1 µM (PIK3CA/PIK3R1; at 100 nM): < 50%
- activity to inhibit kinases [1]: potent activity
- IC50 (SU-DHL-4): < 20 nM
- IC50 (Mino): < 50 nM
